Where “and” joins values, the source holds several entries; their conditions need not be identical. Equal values may be shown once.
Legend:
[1] = system: IL-2 secretion from Jurkat T cells; assay: Secreted IL-2 ELISA after PMA/Iono; assay type: cell-based, human; settings: PMA/Iono treated, Suppl Fig. 4A
TMD8 tumor xenografts = assay: NF-κB target gene mRNA in TMD8 tumor xenografts, qRT-PCR; assay type: in vivo, mouse
Method: Total RNA extraction from the TMD8 tumor xenografts was performed using 80% TRIzol Reagent (Fisher Scientific, Cat# 15596026) and 20% Chloroform for tissue solubilization. After centrifugation, the supernatant was mixed with equal volume of 70% ETOH followed by RNA isolation using the RNeasy Plus Mini
Kit. RNA was transcribed into cDNA using High-Capacity cDNA Reverse Transcription Kit (Applied Biosystems, Cat# 4368814) according to manufacturer’s instructions. RT-PCR was performed using TaqMan Universal PCR Master Mix (Applied Biosystems, Cat# 4304437) and run on a StepOnePlus Real-Time PCR machine (Applied Biosystems). The following probes from ThermoFisher Scientific were used for qRT-PCR: IL2 TaqMan probe Hs00174114, IL6 TaqMan

human primary T cells = assay: Human T cell apoptosis, annexin V; assay type: cell-based
Method: Annexin V Alexa 488
(ThermoFisher Scientific, Cat# A13201) and SYTOX Blue Dead Cell (ThermoFisher Scientific, Cat# S34857) stains were used to detect apoptosis in DLBCL cells after treatment with 1 µM compounds for 8 days in TMD8 and OCI-Ly1 and for 5 days in OCI-Ly3 cells, then analyzed with flow cytometry. The percentages of cells in early and late apoptosis were combined for […]
quantification. […]
Human T cell apoptosis. Human CD4/CD8 T cells were isolated from blood using Pan T Cell Isolation Kit (Miltenyi Biotec, Cat# 130-096-535), IRB exemption STUDY21080109. T cells were incubated with DynabeadsTM Human T-Activator CD3/CD28 (Thermo Fisher Scientific, Cat# 11131D) for 72 hours after which cells were grown in RPMI containing 10% FBS and IL-2 (Peprotech, Cat# 200-02). T cells were treated with M1i-124 (1 µM) or DMSO control with media change/drug treatment every 2-4 days. Apoptosis was evaluated on day 6 as described previously except that annexin V 647 was utilized (Invitrogen, A23204). Data is from 3 independent donors. […]

[2] = system: all CYP enzymes tested (CYP1A2, CYP2C9, CYP2C19, CYP2D6, CYP3A4); assay: Reversible CYP inhibition, all enzymes tested; assay type: in vitro ADME; settings: both sexes, human, pooled human liver microsomes; read-out: IC50 against all CYP enzymes tested
Method: Pharmacokinetic and cytochrome P450 inhibition studies. Studies were performed with the assistance of Touchstone Biosciences (Plymouth Meeting, Pennsylvania). […]
For reversible CYP […]
inhibition studies, different concentrations of M1i-124 were added to 0.2 mg/ml pooled, mixed-gender human liver microsomes (HLM). Each CYP450 isoform-specific probe substrate (CYP1A2, CYP2C9, CYP2C19, CYP2D6, and CYP3A4) was incubated individually with HLM and M1i-124 or corresponding positive control inhibitor (Phenacetin, Tolbutamaide, S-Mephenytoin, Dextromethorphan, Midazolam, and Testosterone). Samples were analyzed for metabolites of the probe substrates by LC-MS/MS at each of the test compound concentrations. A decrease in the formation of the metabolites compared to vehicle control was used to calculate the […]

[3] = system: BCL10 and MALT1 mRNA in TMD8 cells; assay: BCL10 and MALT1 mRNA expression, qRT-PCR; assay type: cell-based, human
Method: Transfection. HEK293T or HepG2 BCL10-/- cells (used only in Supplemental Figure 1 where indicated) were transiently transfected at approximately 80% confluence using Lipofectamine 3000 (ThermoFisher, Cat# L3000015) per manufacture instructions. Cells were lysed in buffer (150 mM NaCl, 2 mM EDTA, 10% glycerol, 1% Nonidet P-40, 20 mM Tris Hcl, pH 7.4) containing protease and phosphatase inhibitors (Thermo Scientific, Cat#78446) at 24 hours for HEK293T cells or 48 hours for HepG2 BCL10-/- cells.
Immunoprecipitation. Cells were rinsed in PBS and lysed in buffer (150 mM NaCl, 2 mM EDTA, 10% glycerol, 1% Nonidet P-40, 20 mM Tris HCl, pH 7.4) containing protease and phosphatase inhibitors (Thermo Scientific, Cat#78446). Supernatants were incubated with anti-Myc tag agarose beads (Takara, Cat# 631208) or anti-HA tag matrix (Roche, Cat# 11815016001) overnight at 4°C with gentle rotation. Beads were then pelleted at 1000 rpm for 2 min and washed 3-4 times with buffer. Antibody-protein conjugates were removed from beads by boiling for ~5-8 minutes in 2x Laemmli sample buffer (Bio-Rad Laboratories, Cat# 161073) containing 2-mercaptoethanol, and samples were then subjected to SDS-PAGE and immunoblotting.
Antibodies for western blots. The HRP-conjugated anti-HA (clone 3F10, Cat# 12013819001) and anti-HA (clone 3F10, Cat# 11867423001) antibodies were purchased from Sigma. The anti-phospho-IKKα(Ser176)/ IKKβ(Ser177) (clone C84E11, Cat# 2078), rabbit anti-GAPDH (clone […]
were purchased from Cell Signaling Technology. The mouse anti-GAPDH (clone 6C5, Cat# sc- […]
anti-IKKα/β (clone H-470, Cat# sc-7607) antibodies were purchased from Santa Cruz. The anti-N4BP1 antibody (Cat# CPA2415) was purchased from Cohesion Biosciences. The anti-mouse (Cat# W4021) and anti-rabbit (Cat# W4011) HRP-conjugated secondaries were purchased from Promega. The anti-Rat HRP-conjugated secondary was purchased from Cell Signaling […]
qRT-PCR. Jurkat T cells grown in serum free media for 4 hours with indicated inhibitors prior to stimulation with PMA/Ionomycin for 4 hours. […]

[4] = 24-hour time point, result in words

## CN1CCCC(CN2c3ccccc3Sc3ccccc32)C1 (stereo not drawn) [Mepazine, mepazine, reference compound]
[1]; Homo sapiens, Jurkat, read-out: IL-2 protein level (% of control)
  activity at 5 µM: 29.9%
[1]; 5 uM
  IL-2 protein level (% of control): 22.8269 % of control and 31.0927 % of control

## O=S(=O)(NCc1ccc2c(c1)OCO2)c1ccc(Cc2ccc(S(=O)(=O)NCc3ccc4c(c3)OCO4)cc2)cc1 [M1i-124]
TMD8 tumor xenografts; [4]
  IRF4 mRNA level in tumors: no effect
  NFKBID mRNA level in tumors: no effect
  NFKBIZ mRNA level in tumors: did reduce
  TNFA mRNA level in tumors: did reduce
TMD8 tumor xenografts; 24 hours after last dose, result in words
  IL10 mRNA levels in tumors: not affected
TMD8 tumor xenografts; 24 hours after last dose, vs DMSO, result in words
  IL6 mRNA level in tumors: significant decrease
TMD8 tumor xenografts; NFKBID
  Gene expression by RT-PCR (normalized): 0.81 and 0.72 and 0.56 and 0.88 and 1.03 and 0.82 and 0.76 and 0.92
Human primary T cells; human primary T cells, 1 µM, day 6
  Annexin (% positivity): 5.305% and 5.353% and 4.227%
Human primary T cells; vs untreated control, result in words
  apoptosis of human primary T cells: no difference
[2]
  IC50: > 10 µM
[3]; TMD8, 1 μM, 24 hrs
  BCL10 mRNA (normalized): 1.022 and 1.024 and 1.305
  MALT1 mRNA (normalized): 0.842 and 0.979 and 1.096
[3]; TMD8, result in words
  BCL10 and MALT1 mRNA levels: modest time-dependent upregulation
